Here are results for 41 molecules from US20200315241A1 (Nude Nicotine, Inc., priority 2017, published 2020).

For data set [1] the following is noted: cited from earlier work.
The conditions of data set [2]: nicotine salt complex.
The subject of another data set is respiratory tract. To be noted: user perception, nicotine citrate compared with nicotine hexanoate.
For data set [3] the following is noted: free-base nicotine; depending on concentration; cited from earlier work.
[4] abbreviates: Table 5, organic acid, second value.
Setting [5] is: Table 7, nicotine salt (organic acid).
Setting [6] is: Table 7, nicotine salt (organic acid), second value.
[7] abbreviates: Table 7, nicotine salt (organic acid), third value printed in the cell.

Where two headings read alike, the source gives them in different places.

For `CC(=O)CC(=O)O` [3-Oxobutanoic Acid (Acetoacetic Acid), 3-Oxobutanoic Acid], in data set [1] (Table 5, organic acid), the pKa (commonly the negative logarithm of the acid dissociation constant) was 3.58.

Regarding `O=C(O)C[C@H](C(=O)O)[C@@H](O)C(=O)O` [Isocitric Acid], the pKa is 3.29 in data set [1] (Table 5, organic acid); 4.71 in data set [1] (setting [4]); 6.40 in data set [1] (Table 5, organic acid, third value printed in the cell).

`O=C(O)CC(O)C(=O)O` (centres unmarked) [Malic Acid]: the pKa is recorded as 3.51 in data set [1] (Table 5, organic acid) and 5.03 in data set [1] (setting [4]). Besides, the pKa1 in data set [1] (pH for binding of second carboxylic acid group) is reported as 5.03.

In the case of `CN1CCCC1c1cccnc1.O=C(O)C(=O)O.O=C(O)CC(O)C(=O)O` (centres unmarked) [Nicotine N-malate-N′-oxalate], the pH in data set [2] is recorded as approximately 5.5.

Consider `CC(=O)O.CN1CCCC1c1cccnc1` (centres unmarked) [Nicotine acetate], for which the pH in data set [2] is on record as approximately 6.5.

`CN1CCCC1c1cccnc1.C[C@H](N)C(=O)O` (centres unmarked) [Nicotine alanate]: in data set [1] (setting [5]), the pKa is 2.34.

As to `CN1CCCC1c1cccnc1.O=C(O)C=C(CC(=O)O)C(=O)O` (stereo not drawn) [Nicotine cis-aconitate], in data set [1] (setting [5]), the pKa is 1.95.

In the case of `CN1CCCC1c1cccnc1.O=C(O)CC(O)(CC(=O)O)C(=O)O` [Nicotine citrate], in the data set on respiratory tract, the “throat hit / sensation in the respiratory tract” value was “stronger throat hit”.

Take `CN1CCCC1c1cccnc1.NCC(=O)O` (centres unmarked) [Nicotine glycinate]: in data set [1] (setting [5]), the pKa is reported as 2.34.

As to `CN1CCCC1c1cccnc1.O=C(O)CC(C(=O)O)C(O)C(=O)O` (centres unmarked) [Nicotine isocitrate], the results for the pKa in data set [1] (setting [5]), in data set [1] (setting [6]) and in data set [1] (setting [7]) were 3.29, 4.71 and 6.40, respectively.

For the molecule `CN1CCCC1c1cccnc1.O=C(O)CC(O)C(=O)O` (centres unmarked) [Nicotine malate], the pH result in data set [2] is “around 6.5”.

As to `CN1CCCC1c1cccnc1.N[C@@H](Cc1ccccc1)C(=O)O` (centres unmarked) [Nicotine phenylalanate], in data set [1] (setting [5]), the pKa is reported as 1.83.

As for `C#CC(=O)O.CN1CCCC1c1cccnc1` (centres unmarked) [Nicotine propiolate], the pKa in data set [1] (setting [5]) was 1.84.

Regarding `CCC(=O)O.CN1CCCC1c1cccnc1` (centres unmarked) [Nicotine propionate], the pH in data set [2] was approximately 6.5.

Take `CN1CCCC1c1cccnc1.O=C(O)C=C(CC(=O)O)C(=O)O` (stereo not drawn) [Nicotine trans-aconitate]: the pKa in data set [1] (setting [5]) was 2.80; in data set [1] (setting [6]) it was 4.46.

Take `CN1CCCC1c1cccnc1.O=C(O)c1cc(C(=O)O)cc(C(=O)O)c1` [Nicotine trimesate]: the pKa is 3.12 in data set [1] (setting [5]), 3.89 in data set [1] (setting [6]) and 4.70 in data set [1] (setting [7]).

For the molecule `CC(=O)C(=O)O` [Pyruvic Acid], the pKa in data set [1] (Table 5, organic acid) is on record as 2.50.

As for `O=C(O)/C=C(/CC(=O)O)C(=O)O` [cis-Aconitic Acid], the pKa in data set [1] (Table 5, organic acid) is 1.95.

As to `CN1CCCC1c1cccnc1` (centres unmarked) [nicotine], in data set [3], the pH is reported as approximately 10.

For the molecule Nicotine 2-hydroxyisocaproate, the pKa in data set [1] (setting [5]) is on record as 4.26.

On to Nicotine 3-hydroxyglutarate, for which the pKa in data set [1] (setting [5]) is listed as 3.52.

Consider Nicotine 4-hydroxybenzoate, for which the pKa in data set [1] (setting [5]) is given as 4.54.

Consider Nicotine acetoacetate, for which the pKa in data set [1] (setting [5]) is 3.58.

Regarding Nicotine acetylsalicylate, the pKa in data set [1] (setting [5]) was 3.49.

Consider Nicotine asparaginate, for which the pKa in data set [1] (setting [5]) is recorded as 2.02.

For Nicotine cinnamate, in data set [1] (setting [5]), the pKa was 4.44.

For the molecule Nicotine cysteinate, in data set [1] (setting [5]), the pKa is given as 1.96.

Consider Nicotine gluconate, for which, in data set [1] (setting [5]), the pKa is reported as 3.86.

For the molecule Nicotine glutarate, the pKa in data set [1] (setting [5]) was 4.34.

Regarding Nicotine hexanoate, in data set [1] (setting [5]), the pKa was 4.88.

As to Nicotine isocaproate, the pKa in data set [1] (setting [5]) was 5.09.

Regarding Nicotine levulinate, the pKa in data set [1] (setting [5]) and in data set [1] was 4.64 each time.

Nicotine lysinate: the pKa in data set [1] (setting [5]) was 2.18.

Take Nicotine methioninate: the pKa in data set [1] (setting [5]) is 2.28.

For the molecule Nicotine phthalate, the pKa in data set [1] (setting [5]) is 2.76; in data set [1] (setting [6]), 4.92.

Consider Nicotine pyruvate, for which the pKa in data set [1] (setting [5]) is 2.50.

Consider Nicotine tryptophanate, for which the pKa in data set [1] (setting [5]) is 2.83.

Consider Nicotine valerate, for which the pKa in data set [1] (setting [5]) is given as 4.84.

In the case of Nicotine valinate, the pKa in data set [1] (setting [5]) is recorded as 2.32.

In the case of Nicotine vanillate, in data set [1] (setting [5]), the pKa is 4.51.

As to Oxalic Acid, the pKa in data set [1] (Table 5, organic acid) is given as 1.46; in data set [1] (setting [4]), 4.40.
